This is an account of results in patent publication US20080280288A1, “Assay Method to Predict Sensitivity of Cancer Cell to Anticancer Drug” (priority 2004, published 2008).

“Also recorded” adds a separate entry of the source.

Assay [1] has as its system DLD-1 (colorectal) human cancer cell line. Nature of the assay: DLD-1 subcutaneous xenograft in nude mice, relative tumor volume ratio. The format is in vivo. To be noted: DLD-1 s.c. in nude mice; intravenously 10 mg/kg/day for five days. The procedure:
(§1) The 25 human cancer cells proliferated in culture flasks or in the subcutaneous tissues of the nude mice were subcutaneously implanted to the bodysides of nude mice, and the mice were classified into a group of 5 control mice and a group of 5 treated mice of the compound 2 so that the average tumor volume of each group was uniform at the time of a tumor volume of 100 mm^3 or larger. The mice of the treated group were intravenously infused at 10 mg/kg/day for five days, and the mice of the control group were not treated or infused with the vehicle. The tumor volume was measured from day 1, subsequently measured over time on Day 5, 8, 12, 15, and a relative tumor volume ratio (T/C %)was estimated.
(§2) The cancer cells proliferated in culture flasks or in the subcutaneous tissues of the nude mice were subcutaneously implanted to the bodysides of nude mice, and the mice were classified into a group of 5 control mice and a group of 5 treated mice of the compounds so that the average tumor volume of each group was uniform at the time of a tumor volume of 100 mm^3 or larger. The mice of the treated group were intravenously infused at 10 mg/kg/day for five days, and the mice of the control group were not treated or infused with the vehicle. The tumor volume was measured from Day 1, and subsequently measured over time on Day 5, 8, 12, 15, and the relative tumor volume ratio was estimated. […]

The test system of assay [2] is NCI-H596 (NSCLC) human cancer cell line. Nature of the assay: NCI-H596 subcutaneous xenograft in nude mice, relative tumor volume ratio. To be noted: NCI-H596 s.c. in nude mice; intravenously 10 mg/kg/day for five days. It is filed as in vivo. The procedure:
as §1, §2

Assay [3] relates to NCI-H522 (SCLC) human cancer cell line. Nature of the assay: NCI-H522 subcutaneous xenograft in nude mice, relative tumor volume ratio. The format is in vivo. To be noted: NCI-H522 s.c. in nude mice; intravenously 10 mg/kg/day for five days. The procedure:
as §1, §2

Assay [4] has as its system PC-3 (prostate) human cancer cell line. The assay is described as follows: PC-3 subcutaneous xenograft in nude mice, relative tumor volume ratio. The format is in vivo. To be noted: PC-3 s.c. in nude mice; intravenously 10 mg/kg/day for five days. The procedure:
as §1
(§3) The cancer cells proliferated in culture flasks or in the subcutaneous tissues of the nude mice were subcutaneously implanted to the bodysides of nude mice, and the mice were classified into a group of 5 control mice and a group of 5 treated mice of the compounds so that the average tumor volume of each group was uniform at the time of a tumor volume of 100 mm^3 or larger. The mice of the treated group were intravenously infused at 10 mg/kg/day for five days, and the mice of the control group were not treated or infused with the vehicle. The tumor volume was measured from Day 1, and subsequently measured over time on Day 5, 8, 12, 15, and the relative tumor volume ratio was estimated. However, the experiment was basically discontinued at Day 15 in evaluation of the compound 1. In Table 2, the T/C % of the compounds 1, 2, 4 and the compound 2 in Example 2 to each cancer cell are shown.

The subject of assay [5] is WiDr (colorectal) human cancer cell line. Nature of the assay: WiDr subcutaneous xenograft in nude mice, relative tumor volume ratio. It is filed as in vivo. The settings on record: WiDr s.c. in nude mice; intravenously 10 mg/kg/day for five days. On the procedure: as §1, §3
Assay [6] has as its system human breast cancer cell line (BSY-1). The settings on record: reported in WO 02/060890, WO 03/099813, WO 04/011661; cited from earlier work.
Assay [7] has as its system OVCAR3 (ovarian) human cancer cell line. The assay is described as follows: OVCAR3 subcutaneous xenograft in nude mice, relative tumor volume ratio. The format is in vivo. The settings on record: OVCAR3 s.c. in nude mice; intravenously 10 mg/kg/day for five days. The procedure: as §1, §2
The test system of assay [8] is NCI-H460 (NSCLC) human cancer cell line. Nature of the assay: NCI-H460 subcutaneous xenograft in nude mice, relative tumor volume ratio. It is filed as in vivo. The settings on record: for Tumor volume ratio (T/C %): NCI-H460 s.c. in nude mice, intravenously 10 mg/kg/day for five days. On the procedure: as §1, §3
Assay [9] has as its system BSY-1 (breast) human cancer cell line. The assay is described as follows: BSY-1 subcutaneous xenograft in nude mice, relative tumor volume ratio. It is filed as in vivo. The settings on record: for Tumor volume ratio (T/C %): BSY-1 s.c. in nude mice, intravenously 10 mg/kg/day for five days. On the procedure:
as §1, §3

For assay [10], the system named is HT-29 (colorectal) human cancer cell line. Nature of the assay: HT-29 subcutaneous xenograft in nude mice, relative tumor volume ratio. The format is in vivo. To be noted: HT-29 s.c. in nude mice; intravenously 10 mg/kg/day for five days. On the procedure:
as §1, §3

The test system of assay [11] is FaDu (head & neck) human cancer cell line. The assay is described as follows: FaDu subcutaneous xenograft in nude mice, relative tumor volume ratio. The settings on record: FaDu s.c. in nude mice; intravenously 10 mg/kg/day for five days. The format is in vivo. The procedure: as §1, §3
The subject of assay [12] is DU145 (prostate) human cancer cell line. The assay is described as follows: DU145 subcutaneous xenograft in nude mice, relative tumor volume ratio. The settings on record: DU145 s.c. in nude mice; intravenously 10 mg/kg/day for five days. It is filed as in vivo. On the procedure: as §1, §3
The subject of assay [13] is MDA-MB435 (breast) human cancer cell line. Nature of the assay: MDA-MB435 subcutaneous xenograft in nude mice, relative tumor volume ratio. The format is in vivo. The settings on record: MDA-MB435 s.c. in nude mice; intravenously 10 mg/kg/day for five days. The procedure:
as §1, §2

In assay [14] the test system is LC-6-JCK (NSCLC) human cancer cell line. The assay is described as follows: LC-6-JCK subcutaneous xenograft in nude mice, relative tumor volume ratio. The format is in vivo. The settings on record: LC-6-JCK s.c. in nude mice; intravenously 10 mg/kg/day for five days. On the procedure: as §1, §2
The test system of assay [15] is KPL-4 (breast) human cancer cell line. Nature of the assay: KPL-4 subcutaneous xenograft in nude mice, relative tumor volume ratio. It is filed as in vivo. To be noted: KPL-4 s.c. in nude mice; intravenously 10 mg/kg/day for five days. On the procedure: as §1
Assay [16] deals with NCI-H510 (SCLC) human cancer cell line. The assay is described as follows: NCI-H510 subcutaneous xenograft in nude mice, relative tumor volume ratio. The format is in vivo. The settings on record: NCI-H510 s.c. in nude mice; intravenously 10 mg/kg/day for five days. The procedure: as §1
Assay [17] deals with SW620 (colorectal) human cancer cell line. The assay is described as follows: SW620 subcutaneous xenograft in nude mice, relative tumor volume ratio. It is filed as in vivo. The settings on record: SW620 s.c. in nude mice; intravenously 10 mg/kg/day for five days. On the procedure: as §1, §2
Assay [18] has as its system NCI-H526 (SCLC) human cancer cell line. The assay is described as follows: NCI-H526 subcutaneous xenograft in nude mice, relative tumor volume ratio. The format is in vivo. On the procedure: as §1
For assay [19], the system named is HBC4 (breast) human cancer cell line. Nature of the assay: HBC4 subcutaneous xenograft in nude mice, relative tumor volume ratio. The settings on record: HBC4 s.c. in nude mice; intravenously 10 mg/kg/day for five days. It is filed as in vivo. On the procedure:
as §1

Assay [20] deals with Calu-1 (NSCLC) human cancer cell line. Nature of the assay: Calu-1 subcutaneous xenograft in nude mice, relative tumor volume ratio. It is filed as in vivo. To be noted: Calu-1 s.c. in nude mice; intravenously 10 mg/kg/day for five days. On the procedure:
as §1

The test system of assay [21] is KM12 (colorectal) human cancer cell line. Nature of the assay: KM12 subcutaneous xenograft in nude mice, relative tumor volume ratio. To be noted: KM12 s.c. in nude mice; intravenously 10 mg/kg/day for five days. It is filed as in vivo. On the procedure:
as §1

The subject of assay [22] is Lu99 (NSCLC) human cancer cell line. The assay is described as follows: Lu99 subcutaneous xenograft in nude mice, relative tumor volume ratio. The settings on record: Lu99 s.c. in nude mice; intravenously 10 mg/kg/day for five days. The format is in vivo. On the procedure:
as §1

For assay [23], the system named is NCI-H69 (SCLC) human cancer cell line. The assay is described as follows: NCI-H69 subcutaneous xenograft in nude mice, relative tumor volume ratio. It is filed as in vivo. To be noted: NCI-H69 s.c. in nude mice; intravenously 10 mg/kg/day for five days. The procedure:
as §1

Assay [24] relates to SK-OV-3 (ovarian) human cancer cell line. Nature of the assay: SK-OV-3 subcutaneous xenograft in nude mice, relative tumor volume ratio. The format is in vivo. The settings on record: SK-OV-3 s.c. in nude mice; intravenously 10 mg/kg/day for five days. On the procedure: as §1
Assay [25] has as its system MDA-MB468 (breast) human cancer cell line. Nature of the assay: MDA-MB468 subcutaneous xenograft in nude mice, relative tumor volume ratio. The format is in vivo. To be noted: MDA-MB468 s.c. in nude mice; intravenously 10 mg/kg/day for five days. The procedure: as §1
Assay [26] has as its system NCI-H146 (SCLC) human cancer cell line. The assay is described as follows: NCI-H146 subcutaneous xenograft in nude mice, relative tumor volume ratio. The format is in vivo. The procedure: as §1
Assay [27] deals with human colon cancer cell line (WiDr). The settings on record: reported in WO 03/099813 and related filings; cited from earlier work.

Take `CCC(O)C(C)C1OC1CC(C)/C=C/C=C(\C)C1OC(=O)CC(O)CCC(C)(O)C(OC(C)=O)/C=C/C1C` (stereo not drawn) [Compound 1, (8E,12E,14E)-7-acetoxy-3,6,21-trihydroxy-6,10,12,16,20-pentamethyl-18,19-epoxytricosane-8,12,14-trien-11-olide]: the “Tumor volume ratio (T/C %)” value in assay [1] came out at 59%; in [2] it was 76%; in assay [3] it was 64%; in assay [4], 20%; in [5], 29%; in assay [7] it was 23%. Moreover, the “Tumor volume ratio (T/C %)” value stood at 53% in assay [8]; 0% in assay [9]; 58% in assay [10]; 33% in [11]; 26% in [12]; 50% in [13]. Also, the “Antitumor activity to BSY-1 (in words)” value in assay [6] is “high sensitivity; also recorded: high antitumor activity”.

For the molecule `CCC(O)C(C)C1OC1CC(C)(O)/C=C/C=C(\C)C1OC(=O)CC(O)CCC(C)(O)C(OC(=O)N2CCN(C3CCCCCC3)CC2)/C=C/C1C` (stereo not drawn) [Compound 2, (8E,12E,14E)-7-((4-cycloheptylpiperazin-1-yl)carbonyl)oxy-3,6,16,21-tetrahydroxy-6,10,12,16,20-pentamethyl-18,19-epoxytricosane-8,12,14-trien-11-olide], the “Tumor volume ratio (T/C %)” value in [14] stood at 0%; in [1] it was 47%; in assay [15], 23%; in assay [2], 18%; in [3], 42%; in assay [16], 10%. Besides, the “Tumor volume ratio (T/C %)” value in [17] worked out at 28%; in assay [4], 2%; in assay [18] (NCI-H526 s.c. in nude mice, intravenously 10 mg/kg/day for five days), 1%; in [5], 4%; in [19], 5%; in assay [7] it was 0%. The “Tumor volume ratio (T/C %)” value in assay [20] came out at 55%; in assay [21], 34%; in assay [8], 33%; in assay [22], 8%; in [9] it was 0%; in assay [23] it was 1%. Besides, the “Tumor volume ratio (T/C %)” value in assay [10] amounted to 28%; in [11], 3%; in assay [24] it was 27%; in assay [25], 0%; in assay [12], 28%; in assay [13] it was 28%. Moreover, in [26] (NCI-H146 s.c. in nude mice, intravenously 10 mg/kg/day for five days), the “Tumor volume ratio (T/C %)” value is listed as 1%. The “Sensitivity of the cancer cell line to the compound (in words)” value in assay [18] (H526 xenograft in nude mice) is reported as “high sensitivity without remission”; in assay [8] (H460 xenograft in nude mice), “low sensitivity”; in [9] (BSY-1 xenograft in nude mice) it was “high sensitivity until remission”. For the same molecule, in assay [26] (NCI-H146 xenograft in nude mice, tumor not eliminated), the “Course of the tumor (in words)” value was “consecutive reduction of the tumor for a long term”.

Turning to `CCC(O)C(C)C1OC1CC(C)(O)/C=C/C=C(\C)C1OC(=O)CC(O)CCC(C)(O)C(OC(=O)N2CCN(C(C)C)CC2)/C=C/C1C` (stereo not drawn) [Compound 3, (8E,12E,14E)-3,6,16,21-tetrahydroxy-7-((4-isopropylpiperazin-1-yl)carbonyl)oxy-6,10,12,16,20-pentamethyl-18,19-epoxytricosane-8,12,14-trien-11-olide], the “Tumor volume ratio (T/C %)” value in assay [14] turned out to be 0%; in assay [17], 19%; in assay [4], 4%; in assay [5] it was 4%; in [9], 2%; in assay [10], 26%. Further, the “Tumor volume ratio (T/C %)” value in assay [11] came out at 1%; in assay [12], 34%. In assay [27], the “Antitumor activity to WiDr (in words)” value is “antitumor activity”.

For the molecule `CCC(O)C(C)C1OC1CC(C)(O)/C=C/C=C(\C)C1OC(=O)CC(O)CCC(C)(O)C(OC(=O)N2CCN(C)CC2)/C=C/C1C` (stereo not drawn) [Compound 4, (8E,12E,14E)-3,6,16,21-tetrahydroxy-6,10,12,16,20-pentamethyl-7-((4-methylpiperazin-1-yl)-carbonyl)oxy-18,19-epoxytricosane-8,12,14-trien-11-olide], the “Tumor volume ratio (T/C %)” value came out at 3% in [4]; 7% in [5]; 46% in [10]; 5% in [11]; 26% in assay [12]. The “Antitumor activity to WiDr (in words)” value in [27] is “antitumor activity”.
